In PMC10026756:
Like-named read-outs stand apart in the source and are kept apart here.

What was measured:
HCT-116 cells = assay: Apoptosis assay, Annexin V-FITC/PI staining; assay type: cell-based; conditions: HCT-116, treated at IC50 concentration, 24 h
Protocol: Compared to the control group, the number of both early and late apoptotic cells of target compounds 4b and 4e was increased.
(§1) The effects of both 4b and 4e on progress of cell cycle and induction of apoptosis in […] cells were carried out using Annexin V-FITC Apoptosis Detection Kit (BioVision Research Products, Mountain View, CA) (see Supplementary Data)[8].

[1] = test system: HCT-116 colon cancer cell line; assay: Cell cycle analysis; assay type: cell-based; conditions: HCT-116, treated at IC50 concentration, 24 h
Protocol: Aiming to further study the mechanism of the target compounds, the cell cycle arrest experiment of 4b and 4e blocking the cell cycle of HCT-116 was carried out using Annexin V-FITC/PI staining (Table 4 and Figure 8).[56]
as §1

[2] = test system: HCT-116 colon cancer cell line; assay: MTT assay, in vitro cytotoxicity against HCT-116; assay type: cell-based; conditions: read-out: IC50, in vitro cytotoxicity against HCT116 cell line
Protocol: The target compounds were evaluated for their anticancer activity against HCT-116 colon cancer cell line in which both c-Met and VEGFR-2 are overexpressed.[54]^,[55] […] The half maximal inhibitory concentration (IC50) was calculated for each compound (Table 1).
(§2) To scrutinise the cytotoxicity of the target compounds on colorectal cancer and normal cells, MTT assay was carried out against HCT-116 and WI38 cell lines, respectively.

[3] = MTT assay, in vitro toxicity against normal cells; assay type: cell-based; conditions: human, WI38 normal cells; MTT assay, WI38; read-out: IC50, in vitro cytotoxicity against WI38 normal cell line
Protocol: (§3) To scrutinise the safety of target compounds on normal cells, compounds 4b and 4e were selected to evaluate their cytotoxic activity against WI38 normal cell line (Table 2).
as §2

c-Met = c-Met (Homo sapiens, UniProt P08581); assay: In vitro c-Met tyrosine kinase inhibition assay
VEGFR-2 = VEGFR-2 (Homo sapiens, UniProt P35968); assay: In vitro VEGFR-2 tyrosine kinase inhibition assay (BPS KDR Assay Kit)
WI38 normal cell line = assay: MTT assay, in vitro toxicity against normal cells; assay type: cell-based; conditions: HCT-116 versus WI38
Protocol: as §3, §2

[4] = Homo sapiens, HCT-116, MTT assay

Chain of VEGFR-2 (P35968 20-1356): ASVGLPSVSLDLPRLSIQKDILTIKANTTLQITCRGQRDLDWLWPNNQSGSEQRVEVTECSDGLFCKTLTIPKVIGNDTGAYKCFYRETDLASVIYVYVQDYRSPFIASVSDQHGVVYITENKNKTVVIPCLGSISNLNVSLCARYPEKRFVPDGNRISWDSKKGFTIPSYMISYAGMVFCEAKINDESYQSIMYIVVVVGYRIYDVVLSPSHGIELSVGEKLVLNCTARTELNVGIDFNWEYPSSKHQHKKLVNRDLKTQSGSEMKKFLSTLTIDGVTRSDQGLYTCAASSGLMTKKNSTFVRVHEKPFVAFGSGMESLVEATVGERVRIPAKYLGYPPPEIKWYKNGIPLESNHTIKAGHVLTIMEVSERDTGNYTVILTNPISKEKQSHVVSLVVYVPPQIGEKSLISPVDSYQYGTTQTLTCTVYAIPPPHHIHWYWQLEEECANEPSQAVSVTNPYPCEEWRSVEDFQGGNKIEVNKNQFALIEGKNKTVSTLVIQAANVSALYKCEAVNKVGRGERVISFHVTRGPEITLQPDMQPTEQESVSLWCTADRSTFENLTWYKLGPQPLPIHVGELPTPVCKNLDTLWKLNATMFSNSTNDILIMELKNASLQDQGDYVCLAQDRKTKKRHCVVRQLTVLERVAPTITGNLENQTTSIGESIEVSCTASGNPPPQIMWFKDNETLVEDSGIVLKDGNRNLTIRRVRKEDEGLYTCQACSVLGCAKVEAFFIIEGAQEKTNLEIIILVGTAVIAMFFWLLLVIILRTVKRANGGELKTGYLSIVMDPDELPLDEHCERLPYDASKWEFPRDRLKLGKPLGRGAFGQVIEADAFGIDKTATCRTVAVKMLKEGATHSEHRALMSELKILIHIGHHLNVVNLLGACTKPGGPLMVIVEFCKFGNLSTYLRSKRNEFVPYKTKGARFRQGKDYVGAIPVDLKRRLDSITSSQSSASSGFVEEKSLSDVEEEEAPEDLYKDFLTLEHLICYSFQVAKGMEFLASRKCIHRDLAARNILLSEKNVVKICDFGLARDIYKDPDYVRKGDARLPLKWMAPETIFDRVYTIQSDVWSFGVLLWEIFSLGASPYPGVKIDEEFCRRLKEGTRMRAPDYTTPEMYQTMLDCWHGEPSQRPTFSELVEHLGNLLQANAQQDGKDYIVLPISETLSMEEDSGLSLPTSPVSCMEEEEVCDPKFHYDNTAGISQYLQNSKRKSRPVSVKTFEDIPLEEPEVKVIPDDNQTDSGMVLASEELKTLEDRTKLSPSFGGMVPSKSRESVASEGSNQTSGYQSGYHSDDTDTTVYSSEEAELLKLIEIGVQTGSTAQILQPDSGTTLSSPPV
Chain of c-Met (P08581 25-1390): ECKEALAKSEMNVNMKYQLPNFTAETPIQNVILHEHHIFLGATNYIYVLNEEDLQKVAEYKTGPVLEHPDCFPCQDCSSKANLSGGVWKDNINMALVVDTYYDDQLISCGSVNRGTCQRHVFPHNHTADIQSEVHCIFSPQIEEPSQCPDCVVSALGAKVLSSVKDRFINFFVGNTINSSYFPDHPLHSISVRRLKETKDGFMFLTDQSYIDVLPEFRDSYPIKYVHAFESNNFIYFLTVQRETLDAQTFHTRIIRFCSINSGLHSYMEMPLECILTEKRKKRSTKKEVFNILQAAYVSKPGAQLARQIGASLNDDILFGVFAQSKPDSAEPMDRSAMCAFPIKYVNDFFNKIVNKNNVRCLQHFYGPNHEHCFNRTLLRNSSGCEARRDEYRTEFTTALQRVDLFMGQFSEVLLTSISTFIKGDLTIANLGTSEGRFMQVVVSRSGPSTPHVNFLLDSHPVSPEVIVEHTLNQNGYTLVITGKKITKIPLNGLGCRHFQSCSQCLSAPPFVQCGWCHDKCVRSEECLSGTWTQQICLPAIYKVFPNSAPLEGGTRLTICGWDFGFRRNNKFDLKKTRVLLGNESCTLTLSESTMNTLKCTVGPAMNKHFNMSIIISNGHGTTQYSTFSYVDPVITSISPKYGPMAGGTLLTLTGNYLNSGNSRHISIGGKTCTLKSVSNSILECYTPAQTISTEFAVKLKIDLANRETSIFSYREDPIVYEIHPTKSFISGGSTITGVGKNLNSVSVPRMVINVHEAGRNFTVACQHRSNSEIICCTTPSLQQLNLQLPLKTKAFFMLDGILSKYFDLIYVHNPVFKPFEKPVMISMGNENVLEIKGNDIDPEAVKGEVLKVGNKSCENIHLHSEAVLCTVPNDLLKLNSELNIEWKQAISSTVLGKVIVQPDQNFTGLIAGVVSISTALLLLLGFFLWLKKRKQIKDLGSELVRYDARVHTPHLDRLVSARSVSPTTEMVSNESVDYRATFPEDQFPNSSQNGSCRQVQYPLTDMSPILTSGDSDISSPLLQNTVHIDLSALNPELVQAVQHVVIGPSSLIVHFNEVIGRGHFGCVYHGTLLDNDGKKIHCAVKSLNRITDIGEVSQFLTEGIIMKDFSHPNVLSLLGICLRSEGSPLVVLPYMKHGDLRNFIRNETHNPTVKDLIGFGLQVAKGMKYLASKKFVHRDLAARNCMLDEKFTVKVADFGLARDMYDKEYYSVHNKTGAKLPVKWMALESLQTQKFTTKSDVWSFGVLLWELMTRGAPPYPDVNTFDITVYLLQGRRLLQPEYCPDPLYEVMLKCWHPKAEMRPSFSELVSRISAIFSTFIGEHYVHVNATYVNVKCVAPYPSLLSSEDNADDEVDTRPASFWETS

Compound | IC50 [2, 4] [µM] | melting point [°C] | IC50 (c-Met) [µM] | c-Met %inh (c-Met; conc 0.01 (unit not given)) [%] | c-Met %inh (c-Met; conc 0.1 (unit not given)) [%] | c-Met %inh (c-Met; conc 1 (unit not given)) [%] | c-Met %inh (c-Met; conc 10 (unit not given)) [%] | IC50 (VEGFR-2) [µM] | VEGFR-2 %inh (VEGFR-2; conc 0.01 (unit not given)) [%] | VEGFR-2 %inh (VEGFR-2; conc 0.1 (unit not given)) [%] | VEGFR-2 %inh (VEGFR-2; conc 1 (unit not given)) [%] | VEGFR-2 %inh (VEGFR-2; conc 10 (unit not given)) [%] | further results
COc1cc2nccc(Oc3ccc(NC(=O)C4(C(=O)Nc5ccc(F)cc5)CC4)cc3)c2cc1OC [Cabozantinib, reference compound] | 16.4 ± 0.86 | – | – | – | – | – | – | – | – | – | – | – | %Necrosis (HCT-116 cells): 3.63%; Apoptosis %Early (HCT-116 cells): 12.52%; Apoptosis %Late (HCT-116 cells): 19.61%; Apoptosis %Total (HCT-116 cells): 32.13%; %G0–G1 [1]: 43.12%; %G2/M [1]: 24.72%; %S [1]: 32.16%; IC50 [3]: 44.7 ± 2.65 µM
O=C(Cn1c(=O)[nH]c2ccccc2c1=O)Nc1ccccc1 [Compound 2a, 2-(2,4-Dioxo-1,4-dihydroquinazolin-3(2H)-yl)-N-phenylacetamide] | 15.1 ± 0.8 | – | – | – | – | – | – | – | – | – | – | – | –
O=C(Cn1c(=O)[nH]c2ccccc2c1=O)NCc1ccccc1 [Compound 2b, N-Benzyl-2-(2,4-dioxo-1,4-dihydroquinazolin-3(2H)-yl)acetamide] | 16 ± 0.85 | 298 to 299 | – | – | – | – | – | – | – | – | – | – | –
O=C(Cn1c(=O)[nH]c2ccccc2c1=O)NC1CCCCC1 [Compound 2c, N-Cyclohexyl-2-(2,4-dioxo-1,4-dihydroquinazolin-3(2H)-yl)acetamide] | 4.69 ± 0.25 | – | 0.084 ± 0.004 | 27.36 | 55.94 | 73.28 | 92.28 | 0.052 ± 0.002 | 35.32 | 56.18 | 76.46 | 88.96 | –
CN(C)C(=O)Cn1c(=O)[nH]c2ccccc2c1=O [Compound 2d, 2-(2,4-Dioxo-1,4-dihydroquinazolin-3(2H)-yl)-N,N-dimethylacetamide] | 47.5 ± 2.51 | 218 to 220 | – | – | – | – | – | – | – | – | – | – | –
O=C(Cn1c(=O)[nH]c2ccccc2c1=O)N1CCCCC1 [Compound 2e, 3-(2-Oxo-2-(piperidin-1-yl)ethyl)quinazoline-2,4(1H,3H)-dione] | 38 ± 2.01 | 204 | – | – | – | – | – | – | – | – | – | – | –
O=C(Cn1c(=O)[nH]c2ccccc2c1=O)N1CCOCC1 [Compound 2f, 3-(2-Morpholino-2-oxoethyl)quinazoline-2,4(1H,3H)-dione] | 5.4 ± 0.29 | 254 to 255 | 0.161 ± 0.007 | 22.84 | 44.08 | 70.59 | 88.98 | 0.21 ± 0.009 | 18.54 | 43.39 | 68.26 | 85.96 | –
CCOC(=O)CNC(=O)Cn1c(=O)[nH]c2ccccc2c1=O [Compound 2g, Ethyl [2-(2,4-dioxo-1,4-dihydroquinazolin-3(2H)-yl)acetyl]glycinate] | 12.5 ± 0.66 | – | – | – | – | – | – | – | – | – | – | – | –
NNC(=O)CNC(=O)Cn1c(=O)[nH]c2ccccc2c1=O [Compound 3, 2-(2,4-Dioxo-1,4-dihydroquinazolin-3(2H)-yl)-N-(2-hydrazineyl-2-oxo-ethyl)acetamide] | 24.3 ± 1.28 | 296 to 298 | – | – | – | – | – | – | – | – | – | – | –
O=C(Cn1c(=O)[nH]c2ccccc2c1=O)NCC(=O)N/N=C/c1ccccc1 [Compound 4a, (E)-N-[2-(2-Benzylidenehydrazineyl)-2-oxoethyl]-2-(2,4-dioxo-1,4-dihy-droquinazolin-3(2H)-yl)acetamide] | 36.9 ± 1.95 | 325 | – | – | – | – | – | – | – | – | – | – | –
O=C(Cn1c(=O)[nH]c2ccccc2c1=O)NCC(=O)N/N=C/c1ccc([N+](=O)[O-])cc1 [Compound 4b, (E)-2-(2,4-Dioxo-1,4-dihydroquinazolin-3(2H)-yl)-N-[2-(2-[4-nitrobenz-ylidene]hydrazineyl)-2-oxoethyl]acetamide] | < 1 | – | 0.063 ± 0.003 | 27.49 | 58.65 | 82.51 | 93.15 | 0.035 ± 0.002 | 38.24 | 60.12 | 78.48 | 90.09 | %Necrosis (HCT-116 cells): 4.53%; Apoptosis %Early (HCT-116 cells): 15.28%; Apoptosis %Late (HCT-116 cells): 26.41%; Apoptosis %Total (HCT-116 cells): 41.69%; %G0–G1 [1]: 39.59%; %G2/M [1]: 9.34%; %S [1]: 51.07%; IC50 ([2]; MTT assay): 0.734 ± 0.04 µM; cytotoxic activity against HCT-116 colon cancer cells, times more than WI38 normal cells (WI38 normal cell line): 25 times; IC50 [3]: 18.4 ± 1.09 µM
COc1ccc(/C=N/NC(=O)CNC(=O)Cn2c(=O)[nH]c3ccccc3c2=O)cc1 [Compound 4c, (E)-2-(2,4-Dioxo-1,4-dihydroquinazolin-3(2H)-yl)-N-[2-(2-[4-methoxy-benzylidene]hydrazineyl)-2-oxoethyl]acetamide] | 31.8 ± 1.68 | 290 to 292 | – | – | – | – | – | – | – | – | – | – | –
O=C(Cn1c(=O)[nH]c2ccccc2c1=O)NCC(=O)N/N=C/c1ccco1 [Compound 4d, (E)-2-(2,4-Dioxo-1,4-dihydroquinazolin-3(2H)-yl)-N-[2-(2-[furan-2-ylmethylene]hydrazineyl)-2-oxoethyl]acetamide] | 10.8 ± 0.57 | – | – | – | – | – | – | – | – | – | – | – | –
O=C(Cn1c(=O)[nH]c2ccccc2c1=O)NCC(=O)NN=C1CCCCC1 [Compound 4e, N-[2-(2-Cyclohexylidenehydrazineyl)-2-oxoethyl]-2-(2,4-dioxo-1,4-dihydroquinazolin-3(2H)-yl)acetamide] | 1.41 ± 0.07 | – | 0.069 ± 0.003 | 28.94 | 55.05 | 80.41 | 92.94 | 0.082 ± 0.004 | 33.05 | 50.29 | 73.09 | 86.83 | %Necrosis (HCT-116 cells): 2.28%; Apoptosis %Early (HCT-116 cells): 26.76%; Apoptosis %Late (HCT-116 cells): 12.02%; Apoptosis %Total (HCT-116 cells): 38.78%; %G0–G1 [1]: 44.60%; %G2/M [1]: 8.51%; %S [1]: 46.89%; cytotoxic activity against HCT-116 colon cancer cells, times more than WI38 normal cells (WI38 normal cell line): 7.5 times; IC50 [3]: 10.6 ± 0.62 µM
O=C(Cn1c(=O)[nH]c2ccccc2c1=O)NCC(=O)N/N=C1\C(=O)Nc2ccccc21 [Compound 4f, (Z)-2-[2,4-Dioxo-1,4-dihydroquinazolin-3(2H)-yl]-N-[2-oxo-2-(2-(2-oxoindolin-3-ylidene)hydrazineyl)ethyl]acetamide] | 44.1 ± 2.33 | – | – | – | – | – | – | – | – | – | – | – | –
Cc1cc(C)n(C(=O)CNC(=O)Cn2c(=O)[nH]c3ccccc3c2=O)n1 [Compound 4g, N-[2-(3,5-Dimethyl-1H-pyrazol-1-yl)-2-oxoethyl]-2-(2,4-dioxo-1,4-dihyd-roquinazolin-3(2H)-yl)acetamide] | 3.7 ± 0.2 | 284 to 286 | 0.271 ± 0.012 | 20.56 | 34.11 | 65.69 | 85.71 | 0.103 ± 0.005 | 27.96 | 52.07 | 70.58 | 88.15 | –
O=C(Cn1c(=O)[nH]c2ccccc2c1=O)NCc1n[nH]c(=S)o1 [Compound 4h, 2-(2,4-Dioxo-1,4-dihydroquinazolin-3(2H)-yl)-N-[(5-thioxo-4,5-dihydro-1,3,4-oxadiazol-2-yl)methyl]acetamide] | 6.99 ± 0.37 | – | 0.245 ± 0.011 | 17.87 | 35.84 | 70.09 | 86.83 | 0.297 ± 0.013 | 18.58 | 40.45 | 60.74 | 82.49 | –
O=C(Cn1c(=O)[nH]c2ccccc2c1=O)NCC(=O)NNC(=S)Nc1ccccc1 [Compound 4i, 2-(2,4-Dioxo-1,4-dihydroquinazolin-3(2H)-yl)-N-[2-oxo-2-(2-[phenylcar-bamothioyl]hydrazineyl)ethyl]acetamide] | 9.2 ± 0.49 | 287 to 290 | – | – | – | – | – | – | – | – | – | – | –
O=C(Cn1c(=O)[nH]c2ccccc2c1=O)NCc1n[nH]c(=S)n1-c1ccccc1 [Compound 4j, 2-(2,4-Dioxo-1,4-dihydroquinazolin-3(2H)-yl)-N-[(4-phenyl-5-thioxo-4,5-dihydro-1H-1,2,4-triazol-3-yl)methyl]acetamide] | 18.9 ± 1 | – | – | – | – | – | – | – | – | – | – | – | –
